Measured values from patent US11339163B2, “BRaf inhibitors and use thereof for treatment of cutaneous reactions” (Lutris Pharma Ltd., priority 2017, dated 2022).

Experiments:
[1] = test system: Salmonella typhimurium; assay: In vitro Ames test, reverse mutation assay; format: cell-based
[2] = test system: GP; settings: in vivo
[3] = ex vivo skin permeation and penetration, MedFlux-HT diffusion cells; format: in vitro ADME; settings: topical composition comprising LUT014; skin sample; after 24 hours; citrate/phosphate buffer pH 4.0 with 0.01% Brij
Method: An ex vivo permeation and penetration experiment for a topical composition comprising LUT-014 was conducted using MedFlux-HT™ continuous flow through diffusion cells. A skin sample was placed between donor and receptor compartments of the diffusion cell. The diffusion of the topical composition was measured using a citrate/phosphate buffer (pH 4.0) with 0.01% Brij as a receptor solution. LUT014 permeated into the skin sample was extracted using 90/10 acetonitrile/water as an extraction solvent.

[4] = target: PI3 Kinase (p110α/p85α)(h) (Homo sapiens, UniProt P42336); assay: KinaseProfiler kinase selectivity assay; format: biochemical
Method: (§1) All compounds were prepared to 50× final assay concentration in 100% DMSO. This working stock of the compound was added to the assay well as the first component in the reaction, followed by the remaining components. In the standard KinaseProfiler™ service, there is no pre-incubation step between the compound and the kinase prior to initiation of the reaction. The positive control wells contain all components of the reaction, except the compound of interest; however, DMSO (at a final concentration of 2%) is included in these wells to control for solvent effects. The blank wells contain all components of the reaction, with a reference inhibitor replacing the compound of interest. This abolishes kinase activity and establishes the base-line (0% kinase activity remaining).

[5] = target: Plk3(h) (Homo sapiens, UniProt Q9H4B4); assay: KinaseProfiler kinase selectivity assay; format: biochemical
Plk3(h), sequence (Q9H4B4 whole entry): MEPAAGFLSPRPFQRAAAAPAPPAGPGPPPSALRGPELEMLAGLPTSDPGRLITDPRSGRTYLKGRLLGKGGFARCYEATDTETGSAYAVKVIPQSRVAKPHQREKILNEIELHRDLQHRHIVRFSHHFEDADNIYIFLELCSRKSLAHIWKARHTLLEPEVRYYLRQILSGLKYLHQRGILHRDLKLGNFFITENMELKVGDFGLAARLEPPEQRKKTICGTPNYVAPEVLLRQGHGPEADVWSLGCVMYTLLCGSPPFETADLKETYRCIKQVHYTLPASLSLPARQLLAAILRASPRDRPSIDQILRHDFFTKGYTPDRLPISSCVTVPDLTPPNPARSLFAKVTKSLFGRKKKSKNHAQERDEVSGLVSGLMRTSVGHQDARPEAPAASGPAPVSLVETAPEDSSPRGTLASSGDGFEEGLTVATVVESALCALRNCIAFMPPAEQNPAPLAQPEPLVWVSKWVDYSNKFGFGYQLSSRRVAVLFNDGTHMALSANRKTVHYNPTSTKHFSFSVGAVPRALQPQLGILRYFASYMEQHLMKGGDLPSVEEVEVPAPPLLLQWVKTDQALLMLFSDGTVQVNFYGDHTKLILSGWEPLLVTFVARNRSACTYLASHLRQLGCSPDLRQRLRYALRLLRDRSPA
Method: as §1

[6] = target: ALK(h) (Homo sapiens, UniProt Q9UM73); assay: KinaseProfiler kinase selectivity assay; format: biochemical
Method: as §1

[7] = target: SPRK1(h) (Homo sapiens, UniProt Q96SB4); assay: KinaseProfiler kinase selectivity assay; format: biochemical
SPRK1(h), sequence (Q96SB4 whole entry): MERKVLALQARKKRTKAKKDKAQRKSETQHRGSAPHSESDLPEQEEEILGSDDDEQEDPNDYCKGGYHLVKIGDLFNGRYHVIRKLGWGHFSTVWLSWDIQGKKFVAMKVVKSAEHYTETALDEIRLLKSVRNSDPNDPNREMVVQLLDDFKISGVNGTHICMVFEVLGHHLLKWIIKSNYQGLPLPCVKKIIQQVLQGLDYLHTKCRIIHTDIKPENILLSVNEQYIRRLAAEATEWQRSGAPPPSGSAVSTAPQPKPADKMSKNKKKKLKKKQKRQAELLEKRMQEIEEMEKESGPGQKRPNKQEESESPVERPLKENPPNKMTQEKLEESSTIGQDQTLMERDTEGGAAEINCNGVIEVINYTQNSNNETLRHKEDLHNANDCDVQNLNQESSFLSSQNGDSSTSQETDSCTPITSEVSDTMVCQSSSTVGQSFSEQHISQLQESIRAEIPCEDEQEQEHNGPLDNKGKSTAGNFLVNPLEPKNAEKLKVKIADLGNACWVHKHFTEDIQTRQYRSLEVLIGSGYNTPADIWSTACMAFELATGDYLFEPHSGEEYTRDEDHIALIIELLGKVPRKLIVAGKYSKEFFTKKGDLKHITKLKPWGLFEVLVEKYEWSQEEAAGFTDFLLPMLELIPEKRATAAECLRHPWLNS
Method: as §1

[8] = target: CDK2/cyclinA(h) (Homo sapiens, UniProt P24941); assay: KinaseProfiler kinase selectivity assay; format: biochemical
Method: as §1

[9] = target: mTOR(h) (Homo sapiens, UniProt P42345); assay: KinaseProfiler kinase selectivity assay; format: biochemical
Method: as §1

[10] = target: MSK2(h) (Homo sapiens, UniProt O75676); assay: KinaseProfiler kinase selectivity assay; format: biochemical
Method: as §1

[11] = target: PKA(h) (Homo sapiens, UniProt P17612); assay: KinaseProfiler kinase selectivity assay; format: biochemical
Method: as §1

[12] = target: PI3 Kinase (p110β/p85α)(h) (Homo sapiens, UniProt P42338); assay: KinaseProfiler kinase selectivity assay; format: biochemical
PI3 Kinase (p110β/p85α)(h), sequence (P42338 whole entry): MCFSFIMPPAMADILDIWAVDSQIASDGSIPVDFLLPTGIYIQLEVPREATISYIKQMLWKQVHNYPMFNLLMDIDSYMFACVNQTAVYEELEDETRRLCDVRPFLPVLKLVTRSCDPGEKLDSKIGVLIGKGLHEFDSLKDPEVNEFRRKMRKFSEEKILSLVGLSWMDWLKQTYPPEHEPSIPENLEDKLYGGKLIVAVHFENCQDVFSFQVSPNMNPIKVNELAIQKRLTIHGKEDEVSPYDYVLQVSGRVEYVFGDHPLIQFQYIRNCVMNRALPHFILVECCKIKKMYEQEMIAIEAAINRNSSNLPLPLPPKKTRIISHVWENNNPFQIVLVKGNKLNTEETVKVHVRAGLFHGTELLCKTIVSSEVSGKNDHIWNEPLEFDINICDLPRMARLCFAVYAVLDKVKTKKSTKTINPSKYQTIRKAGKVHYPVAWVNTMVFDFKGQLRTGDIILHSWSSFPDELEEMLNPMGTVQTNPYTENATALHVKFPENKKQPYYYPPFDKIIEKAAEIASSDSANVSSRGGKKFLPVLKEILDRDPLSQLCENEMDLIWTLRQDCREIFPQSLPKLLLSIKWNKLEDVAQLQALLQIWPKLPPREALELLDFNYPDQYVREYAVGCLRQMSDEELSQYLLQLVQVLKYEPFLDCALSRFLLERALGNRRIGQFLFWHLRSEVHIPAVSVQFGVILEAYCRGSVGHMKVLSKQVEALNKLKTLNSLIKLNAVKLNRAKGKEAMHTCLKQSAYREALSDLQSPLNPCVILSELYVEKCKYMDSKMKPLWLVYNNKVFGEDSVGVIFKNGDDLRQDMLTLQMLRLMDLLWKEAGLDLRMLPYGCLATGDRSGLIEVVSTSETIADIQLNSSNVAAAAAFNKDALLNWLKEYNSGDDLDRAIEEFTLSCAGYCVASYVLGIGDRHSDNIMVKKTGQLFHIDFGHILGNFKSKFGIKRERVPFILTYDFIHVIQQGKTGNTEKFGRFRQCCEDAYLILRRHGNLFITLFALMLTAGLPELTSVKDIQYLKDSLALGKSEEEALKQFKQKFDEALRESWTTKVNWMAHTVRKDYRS
PI3 Kinase (p110β/p85α)(h), sequence (P27986 whole entry partner): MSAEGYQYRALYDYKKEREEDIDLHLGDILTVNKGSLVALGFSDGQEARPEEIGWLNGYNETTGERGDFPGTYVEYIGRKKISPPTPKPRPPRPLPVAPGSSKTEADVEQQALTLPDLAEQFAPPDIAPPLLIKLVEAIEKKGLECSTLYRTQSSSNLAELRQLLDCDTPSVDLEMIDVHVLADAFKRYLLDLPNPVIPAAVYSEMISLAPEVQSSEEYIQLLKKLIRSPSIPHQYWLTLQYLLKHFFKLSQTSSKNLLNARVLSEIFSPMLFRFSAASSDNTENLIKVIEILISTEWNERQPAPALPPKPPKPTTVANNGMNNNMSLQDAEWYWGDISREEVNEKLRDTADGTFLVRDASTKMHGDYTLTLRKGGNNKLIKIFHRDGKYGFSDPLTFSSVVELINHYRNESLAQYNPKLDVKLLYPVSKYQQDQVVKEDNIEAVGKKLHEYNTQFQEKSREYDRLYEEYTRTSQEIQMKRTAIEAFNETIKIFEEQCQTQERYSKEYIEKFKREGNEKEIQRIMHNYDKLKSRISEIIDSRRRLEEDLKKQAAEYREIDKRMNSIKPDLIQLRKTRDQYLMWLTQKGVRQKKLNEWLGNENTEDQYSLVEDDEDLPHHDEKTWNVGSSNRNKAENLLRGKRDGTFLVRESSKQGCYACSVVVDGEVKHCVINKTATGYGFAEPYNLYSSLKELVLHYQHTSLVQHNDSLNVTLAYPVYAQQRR
Method: as §1

[13] = target: ASK1(h) (Homo sapiens, UniProt Q99683); assay: KinaseProfiler kinase selectivity assay; format: biochemical
Method: as §1

[14] = target: CDK6/cyclinD3(h) (Homo sapiens, UniProt Q00534); assay: KinaseProfiler kinase selectivity assay; format: biochemical
Method: as §1

[15] = target: Abl(h) (Homo sapiens, UniProt P00519); assay: KinaseProfiler kinase selectivity assay; format: biochemical
Method: as §1

[16] = target: ROCK-I(h) (Homo sapiens, UniProt Q13464); assay: KinaseProfiler kinase selectivity assay; format: biochemical
Method: as §1

[17] = target: Rsk1(h) (Homo sapiens, UniProt Q15418); assay: KinaseProfiler kinase selectivity assay; format: biochemical
Method: as §1

[18] = target: CDK9/cyclin T1(h) (Homo sapiens, UniProt P50750); assay: KinaseProfiler kinase selectivity assay; format: biochemical
CDK9/cyclin T1(h), sequence (P50750 whole entry): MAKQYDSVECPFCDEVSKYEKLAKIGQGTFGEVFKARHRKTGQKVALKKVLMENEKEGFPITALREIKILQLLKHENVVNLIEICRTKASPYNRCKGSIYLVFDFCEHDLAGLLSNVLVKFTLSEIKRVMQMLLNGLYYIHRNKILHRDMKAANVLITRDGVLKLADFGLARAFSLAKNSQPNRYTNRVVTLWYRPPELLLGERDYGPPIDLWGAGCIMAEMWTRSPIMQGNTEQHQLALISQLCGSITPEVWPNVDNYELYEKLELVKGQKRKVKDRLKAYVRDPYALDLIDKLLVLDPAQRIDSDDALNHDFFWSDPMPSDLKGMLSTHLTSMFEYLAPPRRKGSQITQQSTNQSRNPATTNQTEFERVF
CDK9/cyclin T1(h), sequence (O60563 whole entry partner): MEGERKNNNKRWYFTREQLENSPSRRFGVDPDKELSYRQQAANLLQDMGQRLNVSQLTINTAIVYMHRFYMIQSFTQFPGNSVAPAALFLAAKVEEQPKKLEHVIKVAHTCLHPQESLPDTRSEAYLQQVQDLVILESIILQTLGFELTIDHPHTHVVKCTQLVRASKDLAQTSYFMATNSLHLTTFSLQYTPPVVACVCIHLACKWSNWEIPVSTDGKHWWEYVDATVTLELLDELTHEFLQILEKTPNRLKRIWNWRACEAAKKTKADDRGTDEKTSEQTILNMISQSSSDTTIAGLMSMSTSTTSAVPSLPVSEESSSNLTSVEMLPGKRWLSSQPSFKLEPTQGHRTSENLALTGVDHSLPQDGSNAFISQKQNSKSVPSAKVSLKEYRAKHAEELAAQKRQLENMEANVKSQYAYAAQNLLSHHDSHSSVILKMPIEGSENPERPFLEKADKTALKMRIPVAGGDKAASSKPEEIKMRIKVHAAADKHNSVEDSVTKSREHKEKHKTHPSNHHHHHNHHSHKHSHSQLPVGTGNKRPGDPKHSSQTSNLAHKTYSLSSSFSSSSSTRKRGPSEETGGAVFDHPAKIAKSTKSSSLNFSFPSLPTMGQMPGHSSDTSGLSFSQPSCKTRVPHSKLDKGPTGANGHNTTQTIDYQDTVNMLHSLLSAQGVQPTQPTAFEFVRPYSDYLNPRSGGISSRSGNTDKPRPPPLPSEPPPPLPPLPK
Method: as §1

[19] = target: MKK7β(h) (Homo sapiens, UniProt O14733); assay: KinaseProfiler kinase selectivity assay; format: biochemical
MKK7β(h), sequence (O14733 whole entry): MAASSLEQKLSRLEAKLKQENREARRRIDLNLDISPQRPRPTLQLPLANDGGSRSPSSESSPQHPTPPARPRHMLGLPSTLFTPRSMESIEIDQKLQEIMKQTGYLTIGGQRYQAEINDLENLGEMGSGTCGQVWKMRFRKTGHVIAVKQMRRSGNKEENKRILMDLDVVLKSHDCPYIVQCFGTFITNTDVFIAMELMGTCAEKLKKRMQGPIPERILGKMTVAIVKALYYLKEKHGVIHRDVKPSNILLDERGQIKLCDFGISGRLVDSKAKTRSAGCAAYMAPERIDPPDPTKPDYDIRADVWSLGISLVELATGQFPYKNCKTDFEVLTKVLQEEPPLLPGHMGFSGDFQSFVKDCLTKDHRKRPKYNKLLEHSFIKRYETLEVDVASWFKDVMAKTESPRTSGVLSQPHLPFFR
Method: as §1

[20] = target: AMPKα1(h) (Homo sapiens, UniProt Q13131); assay: KinaseProfiler kinase selectivity assay; format: biochemical
Method: as §1

[21] = target: MEK1(h) (Homo sapiens, UniProt Q02750); assay: KinaseProfiler kinase selectivity assay; format: biochemical
MEK1(h), sequence (Q02750 whole entry): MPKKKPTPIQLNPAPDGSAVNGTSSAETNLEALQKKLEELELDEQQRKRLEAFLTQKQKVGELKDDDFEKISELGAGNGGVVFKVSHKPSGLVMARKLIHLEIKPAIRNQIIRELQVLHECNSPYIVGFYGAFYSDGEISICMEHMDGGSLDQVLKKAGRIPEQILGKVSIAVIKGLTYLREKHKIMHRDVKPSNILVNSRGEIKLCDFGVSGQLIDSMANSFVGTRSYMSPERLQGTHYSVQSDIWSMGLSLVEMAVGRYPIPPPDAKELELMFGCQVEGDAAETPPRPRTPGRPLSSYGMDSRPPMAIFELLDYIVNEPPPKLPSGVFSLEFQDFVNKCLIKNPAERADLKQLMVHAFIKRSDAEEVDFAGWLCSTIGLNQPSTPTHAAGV
Method: as §1

Q: What does the source list for `Cc1ccc2c(Nc3cccc(OC(F)(F)F)c3)nccc2c1Nc1ncccc1-c1ncnc2[nH]cnc12` [LUT014]?
A: mutagenicity, Salmonella typhimurium reverse mutation assay [1]: not mutagenic; dermal sensitization [2]: The test article is not; maximum accumulated level of LUT014 in the receptor solution [3]: less than 2 ng/mL; remaining activity at 0.01 µM ([4]; Lut014 @ 0.01 μM): 92%; remaining activity at 1 µM ([4]; Lut014 @ 1 μM): 84%; remaining activity at 0.01 µM ([5]; Lut014 @ 0.01 μM): 85%; remaining activity at 1 µM ([5]; Lut014 @ 1 μM): 87%; remaining activity at 0.01 µM ([6]; Lut014 @ 0.01 μM): 150%; remaining activity at 1 µM ([6]; Lut014 @ 1 μM): 83%; remaining activity at 0.01 µM ([7]; Lut014 @ 0.01 μM): 105%; remaining activity at 1 µM ([7]; Lut014 @ 1 μM): 100%; remaining activity at 0.01 µM ([8]; Lut014 @ 0.01 μM): 106%; remaining activity at 1 µM ([8]; Lut014 @ 1 μM): 95%; remaining activity at 0.01 µM ([9]; Lut014 @ 0.01 μM): 100%; remaining activity at 1 µM ([9]; Lut014 @ 1 μM): 96%; remaining activity at 0.01 µM ([10]; Lut014 @ 0.01 μM): 92%; remaining activity at 1 µM ([10]; Lut014 @ 1 μM): 96%; remaining activity at 0.01 µM ([11]; Lut014 @ 0.01 μM): 114%; remaining activity at 1 µM ([11]; Lut014 @ 1 μM): 106%; remaining activity at 0.01 µM ([12]; Lut014 @ 0.01 μM): 101%; remaining activity at 1 µM ([12]; Lut014 @ 1 μM): 95%; remaining activity at 0.01 µM ([13]; Lut014 @ 0.01 μM): 109%; remaining activity at 1 µM ([13]; Lut014 @ 1 μM): 99%; remaining activity at 0.01 µM ([14]; Lut014 @ 0.01 μM): 100%; remaining activity at 1 µM ([14]; Lut014 @ 1 μM): 103%; remaining activity at 0.01 µM ([15]; Lut014 @ 0.01 μM): 92%; remaining activity at 1 µM ([15]; Lut014 @ 1 μM): 25%; remaining activity at 0.01 µM ([16]; Lut014 @ 0.01 μM): 107%; remaining activity at 1 µM ([16]; Lut014 @ 1 μM): 107%; remaining activity at 0.01 µM ([17]; Lut014 @ 0.01 μM): 106%; remaining activity at 1 µM ([17]; Lut014 @ 1 μM): 112%; remaining activity at 0.01 µM ([18]; Lut014 @ 0.01 μM): 110%; remaining activity at 1 µM ([18]; Lut014 @ 1 μM): 98%; remaining activity at 0.01 µM ([19]; Lut014 @ 0.01 μM): 100%; remaining activity at 1 µM ([19]; Lut014 @ 1 μM): 103%; remaining activity at 0.01 µM ([20]; Lut014 @ 0.01 μM): 106%; remaining activity at 1 µM ([20]; Lut014 @ 1 μM): 114%; remaining activity at 0.01 µM ([21]; Lut014 @ 0.01 μM): 98%; remaining activity at 1 µM ([21]; Lut014 @ 1 μM): 105%
